According to patent publication US20260158102A1, “CYCLIC PEPTIDE DERIVATIVE COMPOSITION FOR TREATING OR PREVENTING NEUROPATHIC PAIN AND/OR INFLAMMATORY PAIN” (DKS Co. Ltd., priority 2022, published 2026):

Key:
[1] = Body weight measurement in rat STZ-induced diabetes model; format: in vivo; conditions: mean ± SE, in g (unit assumed)
Procedure: (§1) Compound 9 (50 mg/mL) was diluted with water for injection to obtain a 1 mg/mL administration specimen. For the specimens to be administered at 0.1 mg/mL and 0.01 mg/mL, the specimen to be administered at 1 mg/mL was diluted stepwise with water for injection. Each administration specimen was divided into PP disposable tubes every day and stored in a storehouse (freezer: MDF-MU339H-PJ, PHC Corporation) under the condition of freezing (−30° C. to −20° C., measured value: −26.4 to −24.5° C.). Preparation was performed on the day before the start of administration.
(§2) Water for injection was added to and dissolved in Pregabalin taken out from the capsule to obtain 2 mg/mL. It was prepared before use.
(§3) • Animal species: rat (SPF) • Strain: Crl: CD (SD) • Date of animal acquisition, gender, age in weeks, number of animals acquired, and weight range after 1 day of acquisition • First and second courses: Apr. 6, 2022, male, 7 weeks old, 35 animals, 217 to 237 g • Third and fourth courses: Apr. 13, 2022, male, 7 weeks old, 35 animals, 216 to 235 g • Source: […].
(§4) • Dose volume: calculated at 2 mL/kg based on the body weight on the day of administration. • Number of times of administration: once • Day of administration: 7 days before the day of starting administration of the test substance.
(§5) • Dose volume: calculated at 1 mL/kg based on the body weight on the day of administration. • Number of times of administration: 9 times • Interval of administration: once every 3 days (evaluation was performed on the day after administration) • Day of starting administration: day 8 of STZ administration (day of STZ administration is counted as day 1).
(§6) • Dose volume: calculated at 10 mL/kg based on the body weight on the day of administration. • Number of times of administration: Administration was performed once on the day of evaluation of neuropathic pain, twice in total, and on the other days of administration, a vehicle for a control substance (water for injection) was orally administered.
• Measurement was performed every day after the day of STZ administration.
The mean and standard error of each group were calculated for the 50% withdrawal threshold, body weight, and blood glucose level.
The body weight was an integer.
No significant difference test of body weight and blood glucose levels was performed.

[2] = system: STZ-induced diabetic rats; assay: von Frey test in rat STZ-induced diabetes model; format: in vivo; conditions: for 50% withdrawal threshold by von Frey test: mean ± SE, n=10
Procedure: The activity of the compound of the present disclosure was evaluated according to the following procedure.
as §1, §2, §3
Among the animals having a 50% withdrawal threshold of 8 g or more in the von Frey test measured during the preliminary breeding period, two animals from young animals with animal numbers were assigned to non-diabetes-induced animals, and the remaining animals were assigned to diabetes-induced animals.
Among the diabetes-induced animals, animals having a blood glucose level of 300 mg/dL or less were excluded from the grouping subjects, and were grouped using a computer program (IBUKI, Nihon Bioresearch Center, Inc.) so that the body weight and the average blood glucose level of each group were approximately equal. That is, the animals for the first and second courses and the third and fourth courses were grouped into one non-diabetes animal for Group 1, and 5 […] animals for Groups 2 to 6. Note that the grouping was performed so that there were 4 examples in Group 1 and 10 examples in each of Groups 2 to 6.
• Administration method: Using a syringe (Terumo Corporation) equipped with a 25 G winged injection needle (Terumo Corporation), tail vein administration was performed. Note that a 0.75 mmol/L CAB solution was administered to a non-diabetes-induced control group.
as §4
• Administration method: Using a syringe (Terumo Corporation) equipped with a 25 G winged injection needle (Terumo Corporation), tail vein administration was performed. Note that physiological saline was administered to the non-diabetes control group and the diabetes control group.
as §5
• Administration method: Using a polypropylene disposable syringe (Terumo Corporation) equipped with a metal oral zonde for a rat (Fuchigami kikai Ltd.), forced oral administration was performed.
as §6, with “administered. […]” for “administered.”

Question: With `CC[C@@]1(C)Oc2cc(ccc2O)C[C@H](NC)C(=O)N[C@@H](C(C)C)C(=O)N[C@@H]1C(=O)N[C@@H](CC(=O)O)C(=O)O` [Compound 9] as the compound, how does the Body weight ([1]; 0.1 mg/kg iv, day 23 of STZ administration) read?
Answer: 314 ± 8

Question: What about the Body weight ([1]; 0.1 mg/kg iv, day 24 of STZ administration) of the same compound?
Answer: 312 ± 7

Question: What about the Body weight ([1]; 0.1 mg/kg iv, day 25 of STZ administration) of the same compound?
Answer: 312 ± 7

Question: And the Body weight ([1]; 0.1 mg/kg iv, day 26 of STZ administration)?
Answer: 312 ± 7

Question: What about the Body weight ([1]; 0.1 mg/kg iv, day 27 of STZ administration) of the same compound?
Answer: 310 ± 8

Question: What about the Body weight ([1]; 0.1 mg/kg iv, day 28 of STZ administration) of the same compound?
Answer: 315 ± 8

Question: And the Body weight ([1]; 0.1 mg/kg iv, day 29 of STZ administration)?
Answer: 311 ± 7

Question: And the Body weight ([1]; 0.1 mg/kg iv, day 30 of STZ administration)?
Answer: 313 ± 8

Question: And the Body weight ([1]; 0.1 mg/kg iv, day 31 of STZ administration)?
Answer: 310 ± 8

Question: What about the Body weight ([1]; 0.1 mg/kg iv, day 32 of STZ administration) of the same compound?
Answer: 312 ± 8

Question: And the Body weight ([1]; 0.1 mg/kg iv, day 33 of STZ administration)?
Answer: 308 ± 8

Question: What about the Body weight ([1]; 1 mg/kg iv, day 1 of STZ administration) of the same compound?
Answer: 293 ± 5

Question: What about the Body weight ([1]; 1 mg/kg iv, day 2 of STZ administration) of the same compound?
Answer: 282 ± 6

Question: What about the Body weight ([1]; 1 mg/kg iv, day 3 of STZ administration) of the same compound?
Answer: 277 ± 4

Question: And the Body weight ([1]; 1 mg/kg iv, day 4 of STZ administration)?
Answer: 279 ± 4

Question: And the Body weight ([1]; 1 mg/kg iv, day 5 of STZ administration)?
Answer: 284 ± 5

Question: What about the Body weight ([1]; 1 mg/kg iv, day 6 of STZ administration) of the same compound?
Answer: 286 ± 5

Question: And the Body weight ([1]; 1 mg/kg iv, day 7 of STZ administration)?
Answer: 291 ± 5

Question: And the Body weight ([1]; 1 mg/kg iv, day 8 of STZ administration)?
Answer: 290 ± 5

Question: And the Body weight ([1]; 1 mg/kg iv, day 9 of STZ administration)?
Answer: 291 ± 5

Question: And the Body weight ([1]; 1 mg/kg iv, day 10 of STZ administration)?
Answer: 294 ± 6

Question: What about the Body weight ([1]; 1 mg/kg iv, day 11 of STZ administration) of the same compound?
Answer: 300 ± 7

Question: What about the Body weight ([1]; 1 mg/kg iv, day 12 of STZ administration) of the same compound?
Answer: 299 ± 6

Question: And the Body weight ([1]; 1 mg/kg iv, day 13 of STZ administration)?
Answer: 303 ± 6

Question: And the Body weight ([1]; 1 mg/kg iv, day 14 of STZ administration)?
Answer: 302 ± 6

Question: What about the Body weight ([1]; 1 mg/kg iv, day 15 of STZ administration) of the same compound?
Answer: 303 ± 7

Question: And the Body weight ([1]; 1 mg/kg iv, day 16 of STZ administration)?
Answer: 303 ± 8

Question: What about the Body weight ([1]; 1 mg/kg iv, day 17 of STZ administration) of the same compound?
Answer: 305 ± 8

Question: What about the Body weight ([1]; 1 mg/kg iv, day 18 of STZ administration) of the same compound?
Answer: 306 ± 7

Question: And the Body weight ([1]; 1 mg/kg iv, day 19 of STZ administration)?
Answer: 307 ± 7

Question: What about the Body weight ([1]; 1 mg/kg iv, day 20 of STZ administration) of the same compound?
Answer: 305 ± 9

Question: And the Body weight ([1]; 1 mg/kg iv, day 21 of STZ administration)?
Answer: 304 ± 8

Question: And the Body weight ([1]; 1 mg/kg iv, day 22 of STZ administration)?
Answer: 309 ± 8

Question: What about the Body weight ([1]; 1 mg/kg iv, day 23 of STZ administration) of the same compound?
Answer: 309 ± 9

Question: And the Body weight ([1]; 1 mg/kg iv, day 24 of STZ administration)?
Answer: 311 ± 9

Question: And the Body weight ([1]; 1 mg/kg iv, day 25 of STZ administration)?
Answer: 309 ± 9

Question: What about the Body weight ([1]; 1 mg/kg iv, day 26 of STZ administration) of the same compound?
Answer: 311 ± 9

Question: What about the Body weight ([1]; 1 mg/kg iv, day 27 of STZ administration) of the same compound?
Answer: 308 ± 9

Question: And the Body weight ([1]; 1 mg/kg iv, day 28 of STZ administration)?
Answer: 309 ± 9

Question: What about the Body weight ([1]; 1 mg/kg iv, day 29 of STZ administration) of the same compound?
Answer: 310 ± 9

Question: And the Body weight ([1]; 1 mg/kg iv, day 30 of STZ administration)?
Answer: 308 ± 10

Question: What about the Body weight ([1]; 1 mg/kg iv, day 31 of STZ administration) of the same compound?
Answer: 306 ± 9

Question: And the Body weight ([1]; 1 mg/kg iv, day 32 of STZ administration)?
Answer: 309 ± 10

Question: And the Body weight ([1]; 1 mg/kg iv, day 33 of STZ administration)?
Answer: 308 ± 10

Question: And the “50% withdrawal threshold by von Frey test” value ([2]; 0.01 mg/kg iv group, Pre: before STZ administration)?
Answer: 14.6 ± 0.4 g

Question: What about the “change in the 50% withdrawal threshold (von Frey test)” value ([2]; 0.01 mg/kg iv group, as compared with the non-diabetes control group (so in the source)) of the same compound?
Answer: no significant change

Question: What about the “50% withdrawal threshold by von Frey test” value ([2]; 0.01 mg/kg iv once every 3 days from day 8, day 14 of STZ administration) of the same compound?
Answer: 5.7 ± 0.5 g

Question: And the “50% withdrawal threshold by von Frey test” value ([2]; 0.01 mg/kg iv once every 3 days from day 8, day 28 of STZ administration)?
Answer: 3.8 ± 0.2 g

Question: And the “50% withdrawal threshold by von Frey test” value ([2]; 0.1 mg/kg iv group, Pre: before STZ administration)?
Answer: 13.1 ± 0.8 g

Question: And the “change in the 50% withdrawal threshold (von Frey test)” value ([2]; 0.1 mg/kg iv group, as compared with the non-diabetes control group (so in the source))?
Answer: no significant change

Question: And the “50% withdrawal threshold by von Frey test” value ([2]; 0.1 mg/kg iv once every 3 days from day 8, day 14 of STZ administration)?
Answer: 5.7 ± 0.5 g

Question: And the “50% withdrawal threshold by von Frey test” value ([2]; 0.1 mg/kg iv once every 3 days from day 8, day 28 of STZ administration)?
Answer: 4.8 ± 0.4 g

Question: And the “50% withdrawal threshold by von Frey test” value ([2]; 1 mg/kg iv group, Pre: before STZ administration)?
Answer: 13.5 ± 0.7 g

Question: What about the “change in the 50% withdrawal threshold (von Frey test)” value ([2]; 1 mg/kg iv group, day 28 after STZ administration, as compared with the diabetes control group) of the same compound?
Answer: significant increase

Question: What about the “50% withdrawal threshold by von Frey test” value ([2]; 1 mg/kg iv once every 3 days from day 8, day 14 of STZ administration) of the same compound?
Answer: 5.8 ± 0.5 g

Question: What about the “50% withdrawal threshold by von Frey test” value ([2]; 1 mg/kg iv once every 3 days from day 8, day 28 of STZ administration) of the same compound?
Answer: 6.7 ± 0.7 † g

Question: And the “effect on diabetic peripheral neuropathic pain” value ([2]; STZ-induced diabetic rats, conclusion of the discussion)?
Answer: suppressing effect
